Patent US10220051B2, “Combination of DNA repair inhibition with bendamustine or gemcitabine in the treatment of cancer” (Institute for Cancer Research, priority 2012, dated 2019)
“Also recorded” adds a separate entry of the source.

Legend:
[1] = tested on: TDG knock-out MEFs transduced with wild type human TDG cDNA; test: Cell cycle FACS after gemcitabine, knock-out MEFs with wild type hTDG; assay type: cell-based, mouse; settings: knockout MEFs reconstituted with wild type TDG
Protocol: (§1) The biologic function of TDG includes a non-enzymatic role as transcriptional co-activator, mediated by protein-protein interactions, and an enzymatic role related to its DNA N-glycosylase activity. To determine whether sensitization to gemcitabine was due to inactivation of TDG enzymatic function, TDG knock-out MEFs transduced with wild type or glycosylase-dead human TDG cDNA were evaluated.

[2] = tested on: BxPC3 pancreatic cancer cells; test: Clonogenic assay, BxPC3 with or without TDG knockdown; assay type: cell-based; settings: TDG knockdown (C8) versus pLKO-infected BxPC3
Protocol: Clonogenic assays were conducted on pancreatic cancer (PaC) cell line BxPC3 infected with empty pLKO vector or with the C8 lentivirus that downregulates TDG. Even in the absence of gemcitabine, colony formation by the TDG knockdown cells was reduced nearly 60% (FIG. 13). In FIG. 10, the maximum number of colonies formed by pLKO-infected BxPC3 cells was set as 100%.

[3] = tested on: TDG wild type mouse embryo fibroblast lines (MEFs); test: Cell cycle FACS after gemcitabine, wild type MEFs; assay type: cell-based; settings: 50 nM gemcitabine, 48 hours
Protocol: (§2) DNA content analysis via flow cytometry. Following indicated drug treatments, cells were fixed with 70% ethanol. For analysis, cells were stained with propidium iodide, RNase A and sodium citrate. Cells were incubated at 37° C. for 30 minutes before being analyzed using a Becton Dickinson single laser three-fluorescence FACScan flow analyzer and Cell Quest software (Becton Dickinson). DNA content was acquired from 10,000 events and FlowJo software was used to process the data.
(§3) Isogenic, littermate-derived, thymine DNA glycosylase (TDG) wild type and knock-out mouse embryo fibroblast lines (MEFs) were treated with a sub-lethal dose of 50 nM gemcitabine for 48 hours. At the end of the treatment, cells were collected, stained with propidium iodide and analyzed by flow cytometry.

[4] = tested on: TDG knock-out mouse embryo fibroblast lines (MEFs); test: Cell cycle FACS after gemcitabine, TDG knock-out MEFs; assay type: cell-based; settings: 50 nM gemcitabine, 48 hours
Protocol: as §2, §3

[5] = tested on: TDG knock-out MEFs transduced with glycosylase-dead human TDG cDNA; test: Cell cycle FACS after gemcitabine, knock-out MEFs with glycosylase-dead hTDG; assay type: cell-based, mouse; settings: versus knock-out cells transduced with wild type human TDG cDNA
Protocol: as §1

[6] = tested on: SK28 cells; test: SK28 clonogenic assay; assay type: cell-based; settings: SK28, concentration-dependent, quadruplicate
Protocol: (§4) Tests were conducted in quadruplicate.

[7] = tested on: BxPC3 cells; test: MTS assay, TDG inhibitor combinations, BxPC3; assay type: cell-based; settings: 10 μM juglone + increasing BDM, 72 and 96 hours
Protocol: (§5) Two TDG inhibitors, juglone and closantel, were tested for their ability to kill two PaC cell lines, BxPC3 and Panc1 cells, in MTS assays. Cells were treated for 72 and 96 hours with 10 μM juglone and 20 μM closantel, in combination with increasing concentrations of BDM.

[8] = tested on: HCT116 colon cancer cells; test: Killing by juglone combinations, HCT116; assay type: cell-based
Protocol: [The source words this procedure for another cell line and reports this cell line under the same test.] as §5

[9] = tested on: BxPC3 cells; test: xCelligence proliferation assay, BxPC3; assay type: cell-based; settings: increasing juglone + 45 μM BDM, 24 hours
Protocol: To independently verify the MTS and clonogenic assays described in the preceding Examples, an assay was conducted using a xCelligence real-time cell analyzer (ACEA Biosciences, Inc.), using a label-free, non-invasive method to monitor adherent cell behavior, including proliferation, spreading and compound-mediated cytotoxicity. The system is based on detecting impedance differences within an electrical circuit created in microelectrodes at the base of culture wells; these differences are converted into a cell index (CI), a value that is influenced by a variety of factors, such as cell number, cell size and cell adhesion. The effect of the TDG inhibitor juglone, in combination with bendamustine (BDM) and gemcitabine (GCB), was assessed on the growth of various cancer cells. BxPC3 cells were treated with 45 μM BDM, in combination with increasing concentrations of juglone, and proliferation was followed over 24 hours.

[10] = tested on: SK28 cells; test: SK28 cell viability (MTS assay); assay type: cell-based; settings: SK28, concentration-dependent, quadruplicate
Protocol: as §4

[11] = tested on: MCF7 breast cancer cells; test: Killing by juglone combinations, MCF7; assay type: cell-based
[12] = tested on: MCF7 breast cancer cell lines; test: xCelligence proliferation assay, MCF7; assay type: cell-based; settings: juglone + BDM
[13] = tested on: SK28 melanoma cells; test: Killing by juglone combinations, SK28; assay type: cell-based

Row | Compound | response to gemcitabine (flow cytometry) [1] | colony formation with increasing gemcitabine [2] | cells in S phase [3] [%] | cells in S phase [4] [%] | sensitivity to gemcitabine (flow cytometry) [5] | clonogenic capacity / colony-forming ability [6] | clonogenic capacity / colony-forming ability ([6]; listed as Juglone) | killing effect in combination with BDM [7] | killing in combination with bendamustine ([8]; juglone + bendamustine) | killing in combination with gemcitabine ([8]; juglone + gemcitabine) | proliferation (normalized cell index) [9] | cell viability [10] | cell viability ([10]; listed as Juglone) | killing effect in combination with BDM ([11]; juglone + BDM) | killing effect in combination with gemcitabine ([11]; juglone + gemcitabine) | proliferation (normalized cell index) [12] | killing in combination with bendamustine ([13]; juglone + bendamustine) | killing in combination with gemcitabine ([13]; juglone + gemcitabine)
1 | Nc1ccn([C@@H]2O[C@H](CO)[C@@H](O)C2(F)F)c(=O)n1 [gemcitabine, 2′,2′-difluorodeoxycytidine] | responded the same as wild type MEFs | further reduced, and this reduction was greater than pLKO-infected cells expressing TDG | 20.7 | 52.3 | increased sensitivity |  |  |  |  |  |  |  |  |  |  |  |  | 
2 | O=C1C=CC(=O)c2c(O)cccc21 [juglone, 5-hydroxynaphthoquinone] |  |  |  |  |  | reduction of SK28 cell viability (MTS assay) and colony-forming ability; also recorded: reduction of clonogenic capacity | reduce cell viability and clonogenic capacity | synergistic killing effect | more effectively killed | more effectively killed | suppressed proliferation more than juglone alone | reduction of SK28 cell viability | reduce cell viability | synergistic effect | synergistic killing | A similar result was observed | more effectively killed | more effectively killed
